Test [1] has as its system amnion epithelial cells (AECs). As to the kind of experiment: Cell migration through type IV collagen-filled microchannels of AM-OOC (bright field microscopy). The format is cell-based, human. Conditions: coculture, OS (CSE) cotreatment in both chambers. From the text: Before using the AM-OOC, devices were washed 3 times with PBS and coated with Matrigel as previously described. The next day, devices were washed 3 times with complete DMEM-F12 medium before cell seeding. Primary cells were then trypsinized and stained with live cell dyes for green fluorescent protein (GFP) (for AEC; CellLight Histone 2B-GFP) or red fluorescent protein (RFP) (for AMC; CellLight Histone 2B-RFP) following the protocol provided by the company (10594 and 10595; Thermo Fisher Scientific, Waltham, MA, USA). Then, 120,000 AECs were loaded into the outer chamber, and 40,000 AMCs were loaded into the inner chamber of the AM-OOC. The AM-OOCs were incubated at 37° C. with 5% CO2 for 24 h before localized treatment (see next section).
To test the effect of OS on cellular transition in the amnion membrane, each AM-OOC was treated with one of the following for 48 h: 1) normal cell culture conditions (control DMEM-F12 medium); 2) OS conditions [induced by treating cells with cigarette smoke extract (CSE)] diluted 1:25 in AEC medium or diluted 1:75 in AMC medium; and 3) to verify the effect of OS, cells were cotreated with an OS inducer (CSE) and an antioxidant or stress signaler p38 MAPK inhibitor [N-acetyl-L-cysteine (NAC, 15 mM, A7250; MilliporeSigma] (23, 29) and SB203580 ([…], S8307; MilliporeSigma) (23, 29), a p38 MAPK inhibitor and a known inducer of EMT. […]

A further test deals with AEC chamber. As to the kind of experiment: LPS induced inflammation propagation in FMI-OOC, cytokines in cell supernatant. The format is cell-based. The method, then:
(§1) FIG. 12A illustrates after lipopolysaccharide (LPS) treatment in the AEC chamber for 24, 48, or 72 hours, cell supernatants were collected from each cell chamber within the FMI-OOC to document LPS induced inflammation propagation. LPS induced an increase in AEC IL-8 production at 24 and 48 hours, which reached the maternal decidua chamber by 72 hours, causing an increase in IL-8. Documenting LPS induced fetal inflammation can reach the maternal compartment in 72 hours within an FMI-OOC device.
(§2) FIG. 12B illustrates after LPS treatment in the maternal decidua (DECI) chamber for 24, 48, or 72 hours, cell supernatants were collected from each cell chamber within the FMI-OOC to document LPS induced inflammation propagation. LPS induced an increase in DECI IL-6 production at 24, which reached the fetal AEC chamber by 24 hours, causing a rise in IL-8 that increased over 72 hours. Documenting LPS induced maternal inflammation can reach the fetal compartment in 72 hours within an FMI-OOC device.
(§3) The device described here expands the previously described two-chamber coculture model into a four-chamber coculture model to include both fetal and maternal cell components. The fetal membrane-decidua interface model (FMI-OOC) composed of four coculture compartments interconnected through arrays of microfluidic channels (FIG. 10 and FIG. 11). Here, three cell types from the fetal side (AEC, AMC, chorion mesenchymal cells (CMC)/chorion trophoblast (CT)) and one from the maternal side (decidua cells) were used, establishing the first OOC model that contains both fetal and maternal cells. Cell loading concentration into each chamber mimicked those of in utero cell ratios of the fetal membrane tissue. The microfluidic channel array prevents cells from flowing into the neighboring compartments during initial cell loading, allow localized drug treatment of each cell layer, and allow taking supernatant from each layer independently for local biochemical analysis. At the same time, these channels allow biochemicals to diffuse between the layers, and also permit cell migration and transition.

Test [2] relates to maternal decidua (DECI) chamber. Described as above. It counts as cell-based. The method, then: as §1, §2, §3

Take `CC(=O)N[C@@H](CS)C(=O)O` [NAC, N-acetyl-L-cysteine]: the “effect on OS cotreatment-induced AEC transition, blocked migration and increased inflammation” value in test [1] is recorded as “prevented”.
As for lipopolysaccharide [LPS], the “AEC IL-8 production” value in the test with AEC chamber (LPS treatment in the AEC chamber, at 24 and 48 hours) is “increase”. The “IL-8 in fetal AEC chamber” value with AEC chamber (LPS treatment in the maternal decidua (DECI) chamber, from 24 hours, increased over 72 hours) is recorded as “rise”. Further, in test [2] (LPS treatment in the AEC chamber, by 72 hours), the “IL-8 in maternal decidua chamber” value is reported as “increase”. The “DECI IL-6 production” value in test [2] (LPS treatment in the maternal decidua (DECI) chamber, at 24) is given as “increase”.

Values taken from US12378508B2, “Organ-on-chips that mimic human pregnancy and parturition” (The Texas A&M University System, priority 2020, dated 2025).
